# Tests used:
# LRRK2 WT = target: T1, LRRK2 WT (Homo sapiens, UniProt Q5S007); test: LRRK2 Kinase Activity Assay (LanthaScreen TR-FRET), wild type; type: biochemical; conditions: recombinant wild type LRRK2, 25 μM ATP, 400 nM LRRKtide, 60 min; class symbols
# T1 construct: purchased Life Technologies PR8604B
# How it was run: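 Recombinant wild-type or G2019S LRRK2 incubated with fluorescein-labeled LRRKtide (ERM-based) peptide, ATP and serially diluted compound for 60 min at room temperature.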
# LRRK2 G2019S = target: T2, LRRK2 G2019S (Homo sapiens, UniProt Q5S007, G2019S); test: LRRK2 Kinase Activity Assay (LanthaScreen TR-FRET), G2019S; type: biochemical; conditions: recombinant G2019S-LRRK2, 25 μM ATP, 400 nM LRRKtide, 60 min; class symbols
# T2 construct: purchased Life Technologies PV4881
# T2 sequence (Q5S007 whole entry G2019S): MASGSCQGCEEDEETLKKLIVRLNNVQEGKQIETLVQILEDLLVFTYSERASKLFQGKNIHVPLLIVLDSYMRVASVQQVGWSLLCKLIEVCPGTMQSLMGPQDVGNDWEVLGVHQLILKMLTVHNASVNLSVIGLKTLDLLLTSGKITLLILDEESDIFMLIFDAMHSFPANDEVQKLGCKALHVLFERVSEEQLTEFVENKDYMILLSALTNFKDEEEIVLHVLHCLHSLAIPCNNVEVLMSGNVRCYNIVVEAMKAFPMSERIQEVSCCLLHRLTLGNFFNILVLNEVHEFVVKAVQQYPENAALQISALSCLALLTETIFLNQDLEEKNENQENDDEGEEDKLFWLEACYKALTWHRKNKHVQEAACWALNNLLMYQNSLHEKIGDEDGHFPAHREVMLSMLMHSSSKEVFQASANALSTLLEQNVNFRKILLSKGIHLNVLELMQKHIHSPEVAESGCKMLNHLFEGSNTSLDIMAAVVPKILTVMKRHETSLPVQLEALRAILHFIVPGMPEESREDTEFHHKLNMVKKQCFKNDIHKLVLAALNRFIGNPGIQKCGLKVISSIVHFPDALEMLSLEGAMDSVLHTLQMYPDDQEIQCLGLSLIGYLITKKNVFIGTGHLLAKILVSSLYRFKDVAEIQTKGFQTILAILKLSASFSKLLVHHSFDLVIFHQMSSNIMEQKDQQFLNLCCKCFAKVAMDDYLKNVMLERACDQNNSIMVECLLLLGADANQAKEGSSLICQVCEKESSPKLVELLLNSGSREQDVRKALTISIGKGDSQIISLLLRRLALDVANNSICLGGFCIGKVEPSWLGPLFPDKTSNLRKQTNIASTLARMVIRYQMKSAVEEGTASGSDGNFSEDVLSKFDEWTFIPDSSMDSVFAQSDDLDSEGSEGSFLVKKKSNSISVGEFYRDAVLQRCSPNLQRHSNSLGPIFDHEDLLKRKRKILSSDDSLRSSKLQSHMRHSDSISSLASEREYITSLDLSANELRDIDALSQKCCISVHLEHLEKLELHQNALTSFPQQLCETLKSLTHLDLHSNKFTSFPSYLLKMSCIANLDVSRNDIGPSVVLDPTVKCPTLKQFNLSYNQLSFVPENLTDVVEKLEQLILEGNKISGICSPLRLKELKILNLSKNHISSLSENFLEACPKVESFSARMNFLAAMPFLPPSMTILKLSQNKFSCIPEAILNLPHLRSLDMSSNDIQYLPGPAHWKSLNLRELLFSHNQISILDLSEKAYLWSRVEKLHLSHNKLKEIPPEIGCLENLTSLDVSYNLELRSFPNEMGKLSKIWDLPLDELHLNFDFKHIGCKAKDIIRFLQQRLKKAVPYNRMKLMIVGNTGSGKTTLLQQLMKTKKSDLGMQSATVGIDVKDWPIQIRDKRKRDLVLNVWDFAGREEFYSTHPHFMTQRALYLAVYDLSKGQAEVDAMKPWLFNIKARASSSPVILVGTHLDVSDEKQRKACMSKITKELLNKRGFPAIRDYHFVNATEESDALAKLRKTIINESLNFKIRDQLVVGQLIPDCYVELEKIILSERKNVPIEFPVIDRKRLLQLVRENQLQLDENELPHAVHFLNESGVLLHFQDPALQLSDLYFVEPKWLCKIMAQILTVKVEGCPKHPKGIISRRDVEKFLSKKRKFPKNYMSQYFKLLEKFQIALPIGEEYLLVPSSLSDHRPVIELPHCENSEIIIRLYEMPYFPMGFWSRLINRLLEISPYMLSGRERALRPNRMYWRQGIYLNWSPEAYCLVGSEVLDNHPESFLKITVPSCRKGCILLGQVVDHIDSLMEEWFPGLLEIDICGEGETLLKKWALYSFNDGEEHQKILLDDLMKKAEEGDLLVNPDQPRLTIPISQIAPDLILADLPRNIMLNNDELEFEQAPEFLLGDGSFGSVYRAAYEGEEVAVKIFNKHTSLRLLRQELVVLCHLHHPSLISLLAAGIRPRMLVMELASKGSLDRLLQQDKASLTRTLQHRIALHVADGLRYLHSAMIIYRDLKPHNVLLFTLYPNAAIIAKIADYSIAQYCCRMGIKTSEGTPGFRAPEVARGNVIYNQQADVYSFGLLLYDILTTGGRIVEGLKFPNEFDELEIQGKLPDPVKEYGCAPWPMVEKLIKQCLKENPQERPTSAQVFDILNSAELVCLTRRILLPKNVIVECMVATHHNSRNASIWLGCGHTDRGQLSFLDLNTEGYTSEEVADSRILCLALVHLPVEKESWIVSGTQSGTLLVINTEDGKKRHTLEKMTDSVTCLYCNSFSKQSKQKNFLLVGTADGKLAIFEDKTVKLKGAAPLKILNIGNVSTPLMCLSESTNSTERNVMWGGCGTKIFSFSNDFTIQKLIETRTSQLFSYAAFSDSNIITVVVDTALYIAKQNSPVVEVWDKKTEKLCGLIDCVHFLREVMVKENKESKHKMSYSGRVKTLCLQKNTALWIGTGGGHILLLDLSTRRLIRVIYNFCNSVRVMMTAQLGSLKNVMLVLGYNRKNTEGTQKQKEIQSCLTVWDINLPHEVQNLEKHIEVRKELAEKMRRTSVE
# Description: LRRK2 kinase activity was measured using a LanthaScreen™ Kinase Activity Assay from ThermoFisher Scientific. Recombinant wild type or G2019S-LRRK2 protein (Life Technologies, PR8604B or PV4881, respectively), was incubated with a fluorescein-labeled peptide substrate called LRRKtide that is based upon ezrin/radixin/moesin (ERM) (Life Technologies, PV4901) in the presence of ATP and serially diluted compound. […] Compound-dependent inhibition of the TR-FRET signal was used to generate a concentration-response curve for IC50 determination.
# After 60 min incubation at room temperature, the reaction was stopped by addition of 10 μL of 2×stop solution containing a final concentration of 2 nM anti-pERM antibody and 10 mM EDTA.
# T1 sequence (Q5S007 whole entry): as the sequence (Q5S007 whole entry G2019S) above, with S2019G counted along it
Compound,IC50 (LRRK2 WT) [nM],IC50 (LRRK2 G2019S) [nM]
"COc1n[nH]c2ccc(O[C@H]3CCc4cc(C#N)c(Cl)nc43)cc12 (single isomer, unassigned) [185, enantiomer 2, 2-Chloro-7-[(3-methoxy-1H-indazol-5-yl)oxy]-6,7-dihydro-5H-cyclopenta[b]pyridine-3-carbonitrile]",1000 to 10000,100 to 1000
"COc1n[nH]c2ccc(O[C@H]3CCCc4cc(C#N)c(Cl)nc43)cc12 (single isomer, unassigned) [186, enantiomer 2, 2-Chloro-8-[(3-methoxy-1H-indazol-5-yl)oxy]-5,6,7,8-tetrahydroquinoline-3-carbonitrile]",1000 to 10000,100 to 1000
"COc1n[nH]c2ccc(O[C@H]3CCc4cc(C#N)c(Br)nc43)cc12 (single isomer, unassigned) [187, enantiomer 2, 2-Bromo-7-[(3-methoxy-1H-indazol-5-yl)oxy]-6,7-dihydro-5H-cyclopenta[b]pyridine-3-carbonitrile]",100 to 1000,100 to 1000
"COc1n[nH]c2ccc(O[C@H]3CCCc4cc(C#N)c(Br)nc43)cc12 (single isomer, unassigned) [188, enantiomer 2, 2-Bromo-8-[(3-methoxy-1H-indazol-5-yl)oxy]-5,6,7,8-tetrahydroquinoline-3-carbonitrile]",1000 to 10000,100 to 1000
"COc1n[nH]c2ccc(O[C@H]3CCc4cc(C#N)c(Cl)cc43)cc12 (single isomer, unassigned) [189, enantiomer 1, 6-Chloro-1-[(3-methoxy-1H-indazol-5-yl)oxy]-2,3-dihydro-1H-indene-5-carbonitrile]",1000 to 10000,100 to 1000
"COc1n[nH]c2ccc(O[C@H]3CCc4cc(C#N)c(Cl)cc43)cc12 (single isomer, unassigned) [189, enantiomer 2, 6-Chloro-1-[(3-methoxy-1H-indazol-5-yl)oxy]-2,3-dihydro-1H-indene-5-carbonitrile]",100 to 1000,< 100
"N#Cc1ccc2c(c1)OCC[C@@H]2Nc1ccc2[nH]nc(-c3cnco3)c2c1 (single isomer, unassigned) [191, enantiomer 1, 4-((3-(oxazol-5-yl)-1H-indazol-5-yl)amino)chromane-7-carbonitrile]",100 to 1000,< 100
"N#Cc1ccc2c(c1)OCC[C@@H]2Nc1ccc2[nH]nc(-c3cnoc3)c2c1 (single isomer, unassigned) [192, enantiomer 1, 4-((3-(Isoxazol-4-yl)-1H-indazol-5-yl)amino)chromane-7-carbonitrile]",100 to 1000,100 to 1000
"N#Cc1ccc2c(c1)OCC[C@@H]2Nc1ccc2[nH]nc(I)c2c1 (single isomer, unassigned) [193, enantiomer 1, 4-((3-Iodo-1H-indazol-5-yl)amino)chromane-7-carbonitrile]",1000 to 10000,100 to 1000
"N#Cc1cnc2c(c1)OCC[C@@H]2Nc1ccc2[nH]nc(-c3cnco3)c2c1 (single isomer, unassigned) [194, enantiomer 2, 4-((3-(Oxazol-5-yl)-1H-indazol-5-yl)amino)-3,4-dihydro-2H-pyrano[3,2-b]pyridine-7-carbonitrile]",100 to 1000,100 to 1000
"Cc1n[nH]c2ccc(O[C@H]3CCc4cc(C#N)ccc43)cc12 (single isomer, unassigned) [Example 1, enantiomer 1, 1-((3-Methyl-1H-indazol-5-yl)oxy)-2,3-dihydro-1H-indene-5-carbonitrile]",100 to 1000,< 100
"Cc1n[nH]c2ccc(O[C@H]3CCc4cc(C#N)ccc43)cc12 (single isomer, unassigned) [Example 1, enantiomer 2, 1-((3-Methyl-1H-indazol-5-yl)oxy)-2,3-dihydro-1H-indene-5-carbonitrile]",100 to 1000,< 100
"N#Cc1ccc2c(c1)CC[C@@H]2Oc1ccc2[nH]nc(-c3cnn(C(F)F)c3)c2c1 (single isomer, unassigned) [Example 4, enantiomer 1, 1-((3-(1-(Difluoromethyl)-1H-pyrazol-4-yl)-1H-indazol-5-yl)oxy)-2,3-dihydro-1H-indene-5-carbonitrile]",100 to 1000,< 100
"N#Cc1ccc2c(c1)CC[C@@H]2Oc1ccc2[nH]nc(-c3cnoc3)c2c1 (single isomer, unassigned) [Example 5, enantiomer 1, 1-((3-(Isoxazol-4-yl)-1H-indazol-5-yl)oxy)-2,3-dihydro-1H-indene-5-carbonitrile]",< 100,< 100
"N#Cc1ccc2c(c1)CCC[C@@H]2Nc1ccc2[nH]nc(-c3cnoc3)c2c1 (single isomer, unassigned) [Example 6, enantiomer 1, 5-((3-(Isoxazol-4-yl)-1H-indazol-5-yl)amino)-5,6,7,8-tetrahydronaphthalene-2-carbonitrile]",< 100,< 100
"N#Cc1ccc2c(c1)CCC[C@@H]2Nc1ccc2[nH]nc(-c3cnoc3)c2c1 (single isomer, unassigned) [Example 6, enantiomer 2, 5-((3-(Isoxazol-4-yl)-1H-indazol-5-yl)amino)-5,6,7,8-tetrahydronaphthalene-2-carbonitrile]",100 to 1000,< 100
"N#Cc1cnc2c(c1)CCC[C@@H]2Nc1ccc2[nH]nc(-c3cnoc3)c2c1 (single isomer, unassigned) [Example 7, enantiomer 1, 8-((3-(Isoxazol-4-yl)-1H-indazol-5-yl)amino)-5,6,7,8-tetrahydroquinoline-3-carbonitrile]",1000 to 10000,100 to 1000
"N#Cc1cnc2c(c1)CCC[C@@H]2Nc1ccc2[nH]nc(-c3cnoc3)c2c1 (single isomer, unassigned) [Example 7, enantiomer 2, 8-((3-(Isoxazol-4-yl)-1H-indazol-5-yl)amino)-5,6,7,8-tetrahydroquinoline-3-carbonitrile]",< 100,< 100
"N#Cc1ccc2c(c1)CC[C@@H]2Nc1ccc2[nH]nc(-c3cnoc3)c2c1 (single isomer, unassigned) [Example 8, enantiomer 1, 1-((3-(Isoxazol-4-yl)-1H-indazol-5-yl)amino)-2,3-dihydro-1H-indene-5-carbonitrile]",< 100,< 100

# Continued, values first:
IC50 (LRRK2 WT) [nM],IC50 (LRRK2 G2019S) [nM],Compound
< 100,< 100,"COc1n[nH]c2ccc(O[C@H]3CCCc4cc(C#N)c(Cl)nc43)cc12 (single isomer, unassigned) [186, enantiomer 1, 2-Chloro-8-[(3-methoxy-1H-indazol-5-yl)oxy]-5,6,7,8-tetrahydroquinoline-3-carbonitrile]"
< 100,< 100,"COc1n[nH]c2ccc(O[C@H]3CCc4cc(C#N)c(Br)nc43)cc12 (single isomer, unassigned) [187, enantiomer 1, 2-Bromo-7-[(3-methoxy-1H-indazol-5-yl)oxy]-6,7-dihydro-5H-cyclopenta[b]pyridine-3-carbonitrile]"
< 100,< 100,"COc1n[nH]c2ccc(O[C@H]3CCCc4cc(C#N)c(Br)nc43)cc12 (single isomer, unassigned) [188, enantiomer 1, 2-Bromo-8-[(3-methoxy-1H-indazol-5-yl)oxy]-5,6,7,8-tetrahydroquinoline-3-carbonitrile]"
< 100,< 100,"Cc1cc2[nH]nc(-c3cnco3)c2cc1NC1CCCc2cc(C#N)cnc21 (single isomer, unassigned) [190, enantiomer 1, 8-[[6-Methyl-3-(1,3-oxazol-5-yl)-1H-indazol-5-yl]amino]-5,6,7,8-tetrahydroquinoline-3-carbonitrile]"
< 100,< 100,"N#Cc1ccc2c(c1)OCC[C@@H]2Nc1ccc2[nH]nc(-c3cnco3)c2c1 (single isomer, unassigned) [191, enantiomer 2, 4-{[3-(1,3-oxazol-5-yl)-1H-indazol-5-yl]amino}-3,4-dihydro-2H-1-benzopyran-7-carbonitrile]"
< 100,< 100,"N#Cc1ccc2c(c1)OCC[C@@H]2Nc1ccc2[nH]nc(-c3cnoc3)c2c1 (single isomer, unassigned) [192, enantiomer 2, 4-((3-(Isoxazol-4-yl)-1H-indazol-5-yl)amino)chromane-7-carbonitrile]"
< 100,< 100,"N#Cc1ccc2c(c1)OCC[C@@H]2Nc1ccc2[nH]nc(I)c2c1 (single isomer, unassigned) [193, enantiomer 2, 4-((3-Iodo-1H-indazol-5-yl)amino)chromane-7-carbonitrile]"
< 100,< 100,"N#Cc1cnc2c(c1)OCC[C@@H]2Nc1ccc2[nH]nc(-c3cnco3)c2c1 (single isomer, unassigned) [194, enantiomer 1, 4-((3-(Oxazol-5-yl)-1H-indazol-5-yl)amino)-3,4-dihydro-2H-pyrano[3,2-b]pyridine-7-carbonitrile]"
< 100,< 100,"N#Cc1cnc2c(c1)CCC[C@@H]2Oc1ccc2[nH]nc(-c3cnoc3)c2c1 (single isomer, unassigned) [Example 2, enantiomer 1, 8-((3-(Isoxazol-4-yl)-1H-indazol-5-yl)oxy)-5,6,7,8-tetrahydroquinoline-3-carbonitrile]"
< 100,< 100,"N#Cc1ccc2c(c1)CCC2Oc1ccc2[nH]nc(-c3cnco3)c2c1 (single isomer, unassigned) [Example 3, enantiomer 1, 1-((3-(Oxazol-5-yl)-1H-indazol-5-yl)oxy)-2,3-dihydro-1H-indene-5-carbonitrile]"

# — patent US20230148214A1, “INDAZOLES AND AZAINDAZOLES AS LRRK2 INHIBITORS” (ESCAPE Bio, Inc., priority 2020, published 2023)
